Assay results as given in paper PMC11627468, “Novel enzyme‐resistant pancreatic polypeptide analogs evoke pancreatic beta‐cell rest, enhance islet cell turnover, and inhibit food intake in mice” (Biofactors (Oxford, England), 2024).
Starred links: 1 amine or outer side, 2 acyl side, 3 side chain; linkers in the order of their positions; H or OH if unused. Residues, ends and D or L forms follow the SMILES beside them. Groups on a side chain read outwards from the residue. No end group written: not given here. *: point of attachment. γGlu = O=C(O)[C@H](CCC(=O)[*:2])N[*:1]; Palmitoyl = CCCCCCCCCCCCCCCC(=O)*

Legend:
[1] = system: C57BL/6 mice; assay: Acute food intake in overnight fasted mice; assay type: in vivo
Method: (§1) Acute in vivo studies were conducted in groups (n = 6) of 4‐month‐old male C57BL/6 mice (Envigo, Huntington, UK). All mice were maintained on standard rodent chow (10% fat, 30% protein, and 60% carbohydrate; Trouw Nutrition, Northwich, UK), and drinking water provided ad libitum. Mice were housed individually and kept in a temperature‐controlled environment (22 ± 2°C), with a 12‐h light/dark cycle. Experiments were carried out in accordance with the UK Animal Scientific Procedures Act 1986 as well as being approved by Ulster University Animal Ethics Review Committee (AWERB) committee and protected by the UK Home Office Animal project license number PPL2902, approved on April 26, 2021. Acute effects of test peptides on food intake were tested in overnight (16 h) fasted mice. Briefly, fasted mice were administered an intraperitoneal (i.p.) injection of saline vehicle (0.9% (w/v) NaCl) alone or in combination with test peptides (each at 25, 75, or 200 nmol/kg bw) and cumulative food intake measured at regular intervals, to assess the pharmacodynamic profile of the test peptides. For food intake studies, mice were provided with preweighed rodent maintenance diet in their food hopper at t = 0 min, which was then re‐weighed at each timepoint with all due care taken to account for any wastage or crumbling of the food pellets. In this regard, the investigator was present at all times during the 180‐min test period to ensure accuracy and consistency in all measurements. Furthermore, effects of PP or related peptides (25 nmol/kg bw) on glucose homeostasis and insulin secretion were evaluated in overnight fasted mice following i.p. injection of glucose alone (18 mmol/kg bw) or in combination with PP peptides (each at 25 nmol/kg bw).

[2] = system: BRIN‐BD11 beta‐cells; assay: Beta‐cell proliferation (Ki‐67 staining); assay type: cell-based; settings: versus control cultures, n = 3
Method: (§2) To assess the effects of PP and related peptides (10^−8 and 10^−6 M) on beta‐cell proliferation and apoptosis, BRIN‐BD11 beta‐cells were seeded onto sterilized, clear‐glass coverslips (16 mm diameter) and placed in 12‐well plates (Falcon Ltd) at a density of 40,000 cells per well and cultured for 18 h. Media control (11.1 mM glucose), GLP‐1 (10^−8 and 10^−6 M), and a cytokine cocktail mix (IL‐1β [100 U/mL], IFNγ [20 U/mL], TNFα [200 U/mL], Sigma Aldrich, UK) were employed as controls, as appropriate. Cells were then rinsed with PBS and fixed using 4% paraformaldehyde. After antigen retrieval with sodium citrate buffer at 95°C for 20 min, blocking was performed using 2% bovine serum albumin (BSA) for 45 min. For proliferation studies, the slips were then incubated at 37°C with rabbit anti‐Ki‐67 primary antibody (Abcam, ab15580), and subsequently with Alexa Fluor® 488 secondary antibody. Coverslips were mounted onto polylysine‐coated microscope slides using a 50:50 glycerol:PBS solution and stored at 4°C until required for analysis. To assess the ability of PP peptides to protect against cytokine‐induced apoptosis, cells were seeded, washed, and fixed as above, with the exception that the media was supplemented with the cytokine mix. The slips were then incubated at 37°C with TUNEL reaction mix for 60 min (Roche Diagnostics, Germany), and mounted onto microscope slides. To assess receptor specificity, co‐incubation of PP peptides with the well characterized NPY4R antagonist, (S)‐VU0637120,[24] at 10^−5 M was employed for beta‐cell proliferation experiments, conducted as detailed above. All slides were viewed using a fluorescent microscope (Olympus System Microscope, model BX51; Southend‐on‐Sea, UK) and photographed by DP70 camera adapter system. Proliferation/TUNEL positive frequency was determined using the cell‐counter function on ImageJ Software and expressed as % of total cells analyzed.

[3] = system: T1, DPP-4; assay: In vitro DPP‐4 degradation; assay type: in vitro ADME, human; settings: purified human DPP-4 enzyme; peptide 50 μg with purified human DPP‐4 (5 μL, 0.01 U/L), 37°C, 8 h; stopped with 10% (v/v) trifluoroacetic acid; rp‐HPLC C‐18, UV 214 nm; peaks by MALDI‐MS; read-out: % intact peptide after 8 h DPP‐4 incubation
T1 construct: purchased Sigma-Aldrich
Method: PP peptides (50 μg) were incubated at 37°C for 0–8 h with 5 μL of purified human DPP‐4 enzyme (0.01 U/L, Sigma‐Aldrich, Gillingham, UK). Degradation reactions were terminated via the addition of 10 μL 10% (v/v) trifluoroacetic acid/water solution. Reaction mixes were separated by reverse phase rp‐HPLC using a Phenomenex C‐18 analytical column (250 × 4.6 mm^2) with UV absorbance detection at 214 nm (ThermoQuest SpectraSystem UV2000 detector). HPLC peaks of interest were collected and analyzed by MALDI‐TOF MS on a Perseptive Biosystems Voyager‐DE Biospectrometry (Hertfordshire, UK).

[4] = system: C57BL/6 mice; assay: Glucose‐stimulated plasma insulin in mice; assay type: in vivo; settings: n = 6; for glucose‐induced insulin secretion (plasma insulin): peptide 25 nmol/kg with glucose 18 mmol/kg i.p., versus glucose control
Method: as §1, with “bw). […] Blood glucose was measured immediately using a hand‐held Ascencia Contour blood glucose meter (Bayer Healthcare, Newbury, Berkshire, UK). For plasma insulin, blood was collected in chilled fluoride/heparin‐coated microcentrifuge tubes (Sarstedt, Numbrecht, Germany) and centrifuged using a Beckman microcentrifuge (Beckman Instruments, Galway, Ireland) for 10 min at 12,000 rpm. Plasma was separated and stored at −20°C, until determination of plasma insulin by radioimmunoassay.[23]” for “bw).”

[5] = system: C57BL/6 mice; assay: Glucose tolerance in mice; assay type: in vivo; settings: exendin‐4 0.25 nmol/kg or CCK‐8 25 nmol/kg with glucose 18 mmol/kg i.p., versus glucose control; n = 6
Method: as §1, with “bw). […] Blood glucose was measured immediately using a hand‐held Ascencia Contour blood glucose meter (Bayer Healthcare, Newbury, Berkshire, UK). […]” for “bw).”

[6] = system: BRIN‐BD11 beta‐cells; assay: Protection against cytokine‐induced beta‐cell apoptosis (TUNEL); assay type: cell-based; settings: peptides 10^−8 and 10^−6 M, cytokine cocktail IL‐1β 100 U/mL, IFNγ 20 U/mL, TNFα 200 U/mL, n = 3
Method: as §2, with “The slips were then incubated at 37°C with TUNEL reaction mix for 60 min (Roche Diagnostics, Germany), and mounted onto microscope slides. To assess receptor specificity, co‐incubation of PP peptides with the well characterized NPY4R antagonist, (S)‐VU0637120,[24] at 10^−5 M was employed for beta‐cell proliferation experiments, conducted as detailed above. All slides were viewed using a fluorescent microscope (Olympus System Microscope, model BX51; Southend‐on‐Sea, UK) and photographed by DP70 camera adapter system.” left out

## CCCCCCCCCCCCCCCC(=O)N[C@@H](CCC(=O)NCCCC[C@H](NC(=O)[C@H](C)NC(=O)[C@H](CC(N)=O)NC(=O)[C@H](CC(=O)O)NC(=O)CNC(=O)[C@@H]1CCCN1C(=O)[C@H](Cc1ccc(O)cc1)NC(=O)[C@@H](NC(=O)[C@@H]1CCCN1C(=O)[C@H](CCC(=O)O)NC(=O)[C@H](CC(C)C)NC(=O)[C@@H]1CCCN1C(=O)[C@H](C)N)C(C)C)C(=O)N1CCC[C@H]1C(=O)N[C@@H](CCC(=O)O)C(=O)N[C@@H](CCC(N)=O)C(=O)N[C@@H](CCSC)C(=O)N[C@@H](C)C(=O)N[C@@H](CCC(N)=O)C(=O)N[C@@H](Cc1ccc(O)cc1)C(=O)N[C@@H](C)C(=O)N[C@@H](C)C(=O)N[C@@H](CC(=O)O)C(=O)N[C@@H](CC(C)C)C(=O)N[C@@H](CCCNC(=N)N)C(=O)N[C@@H](CCCNC(=N)N)C(=O)N[C@@H](Cc1ccc(O)cc1)C(=O)N[C@H](C(=O)N[C@@H](CC(N)=O)C(=O)N[C@@H](CCSC)C(=O)N[C@@H](CC(C)C)C(=O)N[C@H](C(=O)N[C@@H](CCCNC(=N)N)C(=O)N1CCC[C@H]1C(=O)N[C@@H](CCCNC(=N)N)C(=O)N[C@@H](Cc1ccc(O)cc1)C(N)=O)[C@@H](C)O)[C@@H](C)CC)C(=O)O [[K^13Pal]PP] (H-APLEPVYPGDNAK([γGlu-Palmitoyl])PEQMAQYAADLRRYINMLTRPRY-NH2; N-terminus assumed)
[1]; PP peptide 25 nmol/kg with exendin‐4 0.25 nmol/kg i.p., fasted mice, n = 6
  food intake in combination with exendin‐4: additive appetite suppressive actions
[1]; i.p., overnight fasted mice
  food intake in overnight fasted mice, summary in discussion: retained impressive effects to restrict food intake
[2]; peptide 10^−8 M
  BRIN‐BD11 cell proliferation: augmented

## CC[C@H](C)[C@H](NC(=O)[C@H](Cc1ccc(O)cc1)NC(=O)[C@H](CCCNC(=N)N)NC(=O)[C@H](CCCNC(=N)N)NC(=O)[C@H](CC(C)C)NC(=O)[C@H](CC(=O)O)NC(=O)[C@H](C)NC(=O)[C@H](C)NC(=O)[C@H](Cc1ccc(O)cc1)NC(=O)[C@H](CCC(N)=O)NC(=O)[C@H](C)NC(=O)[C@H](CCSC)NC(=O)[C@H](CCC(N)=O)NC(=O)[C@H](CCC(=O)O)NC(=O)[C@@H]1CCCN1C(=O)[C@@H](NC(=O)[C@H](C)NC(=O)[C@H](CC(N)=O)NC(=O)[C@H](CC(=O)O)NC(=O)CNC(=O)[C@@H]1CCCN1C(=O)[C@H](Cc1ccc(O)cc1)NC(=O)[C@@H](NC(=O)[C@@H]1CCCN1C(=O)[C@H](CCC(=O)O)NC(=O)[C@@H]1CCCN1C(=O)[C@@H]1CCCN1C(=O)[C@H](C)N)C(C)C)[C@@H](C)O)C(=O)N[C@@H](CC(N)=O)C(=O)N[C@@H](CCSC)C(=O)N[C@@H](CC(C)C)C(=O)N[C@H](C(=O)N[C@@H](CCCNC(=N)N)C(=O)N1CCC[C@H]1C(=O)N[C@@H](CCCNC(=N)N)C(=O)N[C@@H](Cc1ccc(O)cc1)C(N)=O)[C@@H](C)O [[P^3]PP]
[3]
  remaining at 8 h: > 99%

## (N‐Pal)APLEPVYPGDNATPEQMAQYAADLRRYINMLTRPR‐NH2 [[N‐Pal]PP, PP analog with C‐16 palmitate via γ‐glutamyl spacer at the N‐terminal amino group]
[4]
  glucose‐induced insulin secretion (plasma insulin): slightly decreasing (p = <0.05 to 0.01)
[1]; 200 nmol/kg i.p., overnight fasted mice, later observation points, versus saline, n = 6
  cumulative food intake (appetite suppression): mild inhibitory (p < 0.05) effect

## (N‐Pal)APPEPVYPGDNATPEQMAQYAADLRRYINMLTRPR‐NH2 [[N‐Pal,P^3]PP, PP analog with Pro^3 and N‐terminal C‐16 palmitate via γ‐glutamyl spacer]
[4]
  glucose‐induced insulin secretion (plasma insulin): slightly decreasing (p = <0.05 to 0.01)
[1]; all doses employed (25, 75, 200 nmol/kg i.p.), overnight fasted mice, n = 6
  cumulative food intake (appetite suppression): lacked bioactivity

## CCK‐8: used for cholecystokinin (CCK) receptor activation in combination studies (DYMGWMDF; ends and bridges not checked; UniProt P06307 96-103, looked up)
[4]; exendin‐4 0.25 nmol/kg or CCK‐8 25 nmol/kg with glucose 18 mmol/kg i.p.
  insulinotropic action, exendin‐4 or CCK‐8: significant insulinotropic actions
[1]; CCK‐8 25 nmol/kg i.p., early observation points, versus saline, n = 6
  food intake (appetite suppression), CCK‐8 alone: impressive effects on appetite suppression (p < 0.001)
[5]
  glucose disposal, exendin‐4 or CCK‐8: benefits

## glucagon‐like peptide‐1 (HAEGTFTSDVSSYLEGQAAKEFIAWLVKGR; ends and bridges not checked; UniProt P01275 98-127, looked up) [GLP‐1, positive control in proliferation and apoptosis tests]
[6]
  protection against cytokine‐induced beta‐cell apoptosis: significantly (p = <0.01 to 0.001) protected against cell death
[2]; peptide 10^−6 M
  BRIN‐BD11 cell proliferation: significantly (p < 0.001) enhanced
[2]; peptide 10^−8 M
  BRIN‐BD11 cell proliferation: significantly (p < 0.001) enhanced
